According to publication PMC9239272 (mBio, 2022):

Assays:
SARS2 M^pro Q189E = type: cell-based, SARS-CoV-2
SARS2 M^pro M49D = type: cell-based, SARS-CoV-2
P168G SARS2 M^pro = P168G SARS2 M^pro (Severe acute respiratory syndrome coronavirus 2, UniProt P0DTD1, P3431G); type: biochemical, SARS-CoV-2
SARS2 M^pro M49I = type: cell-based, SARS-CoV-2
P168S SARS2 M^pro = P168S SARS2 M^pro (Severe acute respiratory syndrome coronavirus 2, UniProt P0DTD1, P3431S); type: biochemical, SARS-CoV-2
SARS2 M^pro P168G [1] = type: cell-based, SARS-CoV-2
SARS2 M^pro P168G [2] = type: cell-based, SARS-CoV-2; remark: listed apart in the source
SARS2 M^pro P168S [3] = type: cell-based, SARS-CoV-2
SARS2 M^pro P168S [4] = type: cell-based, SARS-CoV-2; remark: listed apart in the source
SARS2 M^pro Q189N = type: cell-based, SARS-CoV-2
[5] = system: SARS2 H132 (Omicron) M^pro; type: cell-based, SARS-CoV-2

| Compound | effect of amino acid change on inhibition (SARS2 M^pro Q189E) | effect of amino acid change on inhibition (SARS2 M^pro M49D) | lower IC50 than wild-type Mpro (P168G SARS2 M^pro) | effect of amino acid change on inhibition (SARS2 M^pro M49I) | lower IC50 than wild-type Mpro (P168S SARS2 M^pro) | eGFP signal localization compared with wild-type construct (SARS2 M^pro P168G [1]) | average increase in luciferase signal over wild type (SARS2 M^pro P168G [2]) [fold] | effect of amino acid change on inhibition (SARS2 M^pro P168G [2]) | average increase in luciferase signal over wild type (SARS2 M^pro P168S [3]) [fold] | effect of amino acid change on inhibition (SARS2 M^pro P168S [3]) | eGFP signal localization compared with wild-type construct (SARS2 M^pro P168S [4]) | effect of amino acid change on inhibition (SARS2 M^pro Q189N) | sensitivity of Omicron (P132H) Mpro [5] | decrease of inhibitor efficacy versus wild type (SARS2 M^pro M49D) [fold] | decrease of inhibitor efficacy versus wild type (SARS2 M^pro Q189N) [fold] |
| --- | --- | --- | --- | --- | --- | --- | --- | --- | --- | --- | --- | --- | --- | --- | --- |
| CC(C)(C)NC(=O)N[C@H](C(=O)N1C[C@H]2[C@@H]([C@H]1C(=O)NC(CC1CCC1)C(=O)C(N)=O)C2(C)C)C(C)(C)C (stereo partly shown) [boceprevir] | slight resistance | slight resistance | approximately 10 fold | slight resistance | approximately 10 fold | increase in membrane-tethered cytosolic eGFP signal | 4 | hypersensitivity | 4 | hypersensitivity | increase in membrane-tethered cytosolic eGFP signal | slight resistance |  |  |  |
| CC(C)(C)[C@H](NC(=O)C(F)(F)F)C(=O)N1C[C@H]2[C@@H]([C@H]1C(=O)N[C@H](C#N)C[C@@H]1CCNC1=O)C2(C)C [nirmatrelvir] |  |  |  |  |  |  |  |  |  |  |  |  | retains sensitivity |  |  |
| GC376 | minimal effects |  |  | minimal effects |  |  |  | minimal effects |  | minimal effects |  |  |  | 2.1 | 1.8 |
